# Experimental data as given in PubChem BioAssay AID2060489 (Molecular Pharmacology Branch, DTP, NCI, 2025).
# Test system: 922993-354-T-J3-PDC complex spheroids, viability
# Experiment: Anticancer human tumor 922993-354-T-J3-PDC patient-derived endometrial carcinoma cell line growth inhibition [GQUAD]
# Settings: for IC50: curve of first compound; for viability, T/C: stronger effect = lower value
# Summary of the method: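 Tumor cells were grown as complex spheroids with HUVEC endothelial cells and mesenchymal stem cells as stroma. G-quadruplex stabilizers were combined with targeted agents over half-log dilutions from near the clinical Cmax, or from 10 microM.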
# [1] = second compound 0.0316 µM, first compound 0.0316 µM
# [2] = second compound 0.0316 µM, first compound 0.1 µM
# [3] = second compound 0.0316 µM, first compound 0.316 µM
# [4] = second compound 0.0316 µM, first compound 1 µM
# [5] = second compound 0.0316 µM, first compound 3.16 µM
# [6] = second compound 0.0316 µM, first compound 10 µM
# [7] = second compound 0.1 µM, first compound 0.0316 µM
# [8] = second compound 0.1 µM, first compound 0.1 µM
# [9] = second compound 0.1 µM, first compound 0.316 µM
# [10] = second compound 0.1 µM, first compound 1 µM
# [11] = second compound 0.1 µM, first compound 3.16 µM
# [12] = second compound 0.1 µM, first compound 10 µM
# [13] = second compound 0.316 µM, first compound 0.0316 µM
# [14] = second compound 0.316 µM, first compound 0.1 µM
# [15] = second compound 0.316 µM, first compound 0.316 µM
# [16] = second compound 0.316 µM, first compound 1 µM
# [17] = second compound 0.316 µM, first compound 3.16 µM
# [18] = second compound 0.316 µM, first compound 10 µM
# [19] = second compound 1 µM, first compound 0.0316 µM
# [20] = second compound 1 µM, first compound 0.1 µM
# [21] = second compound 1 µM, first compound 0.316 µM
# [22] = second compound 1 µM, first compound 1 µM
# [23] = second compound 1 µM, first compound 3.16 µM
# [24] = second compound 1 µM, first compound 10 µM
# [25] = second compound 3.16 µM, first compound 0.0316 µM
# [26] = second compound 3.16 µM, first compound 0.1 µM
# [27] = second compound 3.16 µM, first compound 0.316 µM
# [28] = second compound 3.16 µM, first compound 1 µM
# [29] = second compound 3.16 µM, first compound 3.16 µM
# [30] = second compound 3.16 µM, first compound 10 µM
# [31] = second compound 10 µM, first compound 0.0316 µM
# [32] = second compound 10 µM, first compound 0.1 µM
# [33] = second compound 10 µM, first compound 0.316 µM
# [34] = second compound 10 µM, first compound 1 µM
# [35] = second compound 10 µM, first compound 3.16 µM
# [36] = second compound 10 µM, first compound 10 µM
# 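Further: spheroids exposed to compounds for seven days.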
# 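Wherever viability, T/C is given: 100% = DMSO vehicle control viability.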
structure (smiles),measurement,setting,value
COc1cc(C2c3cc4c(cc3C(OC3OC5COC(C)OC5C(O)C3O)C3COC(=O)C23)OCO4)cc(OC)c1O (centres undefined) + Cc1[nH]c2ccc(F)cc2c1-c1nc2c3cccnc3c3ncccc3c2[nH]1,IC50,second compound 0.0316 µM,> 10 µM
same,IC50,second compound 0.1 µM,> 10 µM
same,IC50,second compound 0.316 µM,> 10 µM
same,IC50,second compound 1 µM,> 10 µM
same,IC50,second compound 3.16 µM,> 10 µM
same,IC50,second compound 10 µM,> 10 µM
same,"viability, T/C",[1],95.3%
same,"viability, T/C",[2],89.1%
same,"viability, T/C",[3],83.8%
same,"viability, T/C",[4],99.4%
same,"viability, T/C",[5],76.6%
same,"viability, T/C",[6],61.3%
same,"viability, T/C",[7],113%
same,"viability, T/C",[8],97.5%
same,"viability, T/C",[9],92.2%
same,"viability, T/C",[10],92.6%
same,"viability, T/C",[11],76.2%
same,"viability, T/C",[12],62.7%
same,"viability, T/C",[13],110%
same,"viability, T/C",[14],109%
same,"viability, T/C",[15],84.1%
same,"viability, T/C",[16],110%
same,"viability, T/C",[17],56.4%
same,"viability, T/C",[18],61.8%
same,"viability, T/C",[19],138%
same,"viability, T/C",[20],121%
same,"viability, T/C",[21],96.6%
same,"viability, T/C",[22],75.8%
same,"viability, T/C",[23],72.4%
same,"viability, T/C",[24],71.4%
same,"viability, T/C",[25],125%
same,"viability, T/C",[26],109%
same,"viability, T/C",[27],76.2%
same,"viability, T/C",[28],97.6%
same,"viability, T/C",[29],72.3%
same,"viability, T/C",[30],60.5%
same,"viability, T/C",[31],111%
same,"viability, T/C",[32],97.7%
same,"viability, T/C",[33],79.1%
same,"viability, T/C",[34],82.8%
same,"viability, T/C",[35],74.2%
same,"viability, T/C",[36],58.8%
COc1ncnc(C2CC2)c1-c1ncc2cnn(Cc3ccc(-c4nc(C(F)(F)F)cn4C(C)C)cc3)c2n1 + CN(C)c1ccc(Nc2c3ccc(NC(=O)CCN4CCCC4)cc3nc3cc(NC(=O)CCN4CCCC4)ccc23)cc1,IC50,second compound 0.0316 µM,> 10 µM
same,IC50,second compound 0.1 µM,> 10 µM
same,IC50,second compound 0.316 µM,> 10 µM
same,IC50,second compound 1 µM,> 10 µM
same,IC50,second compound 3.16 µM,> 10 µM
same,IC50,second compound 10 µM,> 10 µM
same,"viability, T/C",[1],94.4%
same,"viability, T/C",[2],96.5%
same,"viability, T/C",[3],84%
same,"viability, T/C",[4],72.3%
same,"viability, T/C",[5],63.5%
same,"viability, T/C",[6],87.7%
same,"viability, T/C",[7],86%
same,"viability, T/C",[8],86.7%
same,"viability, T/C",[9],80.9%
same,"viability, T/C",[10],86.6%
same,"viability, T/C",[11],101%
same,"viability, T/C",[12],67.2%
same,"viability, T/C",[13],90.8%
same,"viability, T/C",[14],86%
same,"viability, T/C",[15],74.2%
same,"viability, T/C",[16],81.2%
same,"viability, T/C",[17],90.1%
same,"viability, T/C",[18],74.2%
same,"viability, T/C",[19],73.8%
same,"viability, T/C",[20],86.4%
same,"viability, T/C",[21],93.6%
same,"viability, T/C",[22],74.3%
same,"viability, T/C",[23],90.4%
same,"viability, T/C",[24],76.8%
same,"viability, T/C",[25],98.3%
same,"viability, T/C",[26],109%
same,"viability, T/C",[27],108%
same,"viability, T/C",[28],98.3%
same,"viability, T/C",[29],108%
same,"viability, T/C",[30],76.6%
same,"viability, T/C",[31],115%
same,"viability, T/C",[32],116%
same,"viability, T/C",[33],86.6%
same,"viability, T/C",[34],107%
same,"viability, T/C",[35],101%
same,"viability, T/C",[36],62.9%
